Like-named read-outs stand apart in the source and are kept apart here.
Columns and labels:
[1] = test system: influenza HA vaccine (B/Nagasaki/1/87 strain); format: in vivo, female CDF1 mice; details: Experiment 1, 5000-fold dilution
[2] = test system: hepatitis B virus surface antigen (HBs); test: Hepatitis-vaccine enhancing activity (adjuvant activity): anti-HBs IgG in mouse serum by ELISA; format: in vivo, female CDF1 mice; details: Experiment 1, 5000-fold dilution
Experimental: A compound of the present invention was dissolved in lipidmicrosphere (1 mg/ml). On the other hand, a solution of hepatitis B virus surface antigen (HBs) in physiological saline was prepared (50 μg/ml). The above solutions in equal amounts were mixed to prepare a test solution. A control solution was prepared by the exclusion of the compound of the present invention from said test solution. A mixture of a suspension of aluminium hydroxide gel in physiological saline (1 mg/ml) and said hepatitis vaccine preparation in equal amounts was prepared as another control solution. The test solution (0.2 ml) was intraperitoneally administered to each mouse in one group consisting of seven female CDF1 mice.
Blood samples were collected from the fundus ocluli vein of each mouse every week after the administration and then centrifuged to obtain serums. Three weeks after the administration, 0.2 ml of the test liquid was intraperitoneally administered again to each mouse for secondary stimulation. Then blood collecting was conducted every week to obtain serums after the application of the secondary stimulation, in the same manner as that described above.
The amount of the IgG antibodies against the hepatitis B virus surface antigens (HBs) in the serums thus obtained was determined with an ELISA method.

[3] = test system: L-1210 mouse leukemia cells; test: Activation of macrophages (growth inhibition of tumor cells by intraperitoneal macrophages of treated mice, MTT assay); format: cell-based; details: macrophages taken 3 days after i.p. 0.2 ml of 500 μg/ml, macrophage:L-1210 20:1, 72 hours
Experimental: A compound of the present invention was dissolved in lipidmicrosphere to obtain a solution in a concentration of 500μg/ml, and 0.2 ml of such solution was intraperitoneally administered to each mouse in one group consisting of seven female CDF1 mice. Intraperitoneal macrophages obtained three days after the administration and L-1210 mouse leukemia cells were mixed in the ratio of cell numbers of 20:1, respectively. Two hundred μl of the mixture was placed in each well of one sheet of 96 well microtiter plate. After 72 hours, the increase of the cell number in each well was determined by a MTT assay method. The ratio of the cell number for the mixture of the L-1210 cells and the macrophage relative to the cell number for the L-1210 cells only(growth inhibitory ratio) was determined, and the results are shown in Table 3.

[4] = 1 W after i.p. administration, compound in lipidmicrosphere + HA vaccine
[5] = 4 W (after secondary stimulation at 3 weeks)
[6] = 5 W (after secondary stimulation at 3 weeks)
[7] = 1 W after i.p. administration, compound in lipidmicrosphere + HBs

Structure (SMILES)	Anti HA serum antigen value (average value ± S.D.) [1, 4]	Anti HA serum antigen value (average value ± S.D.) ([1]; 2 W)	Anti HA serum antigen value (average value ± S.D.) ([1]; 3 W)	Anti HA serum antigen value (average value ± S.D.) [1, 5]	Anti HA serum antigen value (average value ± S.D.) [1, 6]	Anti-HBs IgG antibody level in serum (ELISA absorbance at 415 nm) [2, 7]	Anti-HBs IgG antibody level in serum (ELISA absorbance at 415 nm) ([2]; 2 W)	Anti-HBs IgG antibody level in serum (ELISA absorbance at 415 nm) ([2]; 3 W)	Anti-HBs IgG antibody level in serum (ELISA absorbance at 415 nm) [2, 5]	Anti-HBs IgG antibody level in serum (ELISA absorbance at 415 nm) [2, 6]	Growth inhibitory ratio of L-1210 mouse leukemia cells [3]
CCCCCCCCCCCCCCC(CCCCCCCCCCCCCC)C(=O)S[C@@H]1O[C@H](CO)[C@@H](O)[C@H](O[C@H](C)C(=O)N[C@@H](C)C(=O)N[C@H](CCC(=O)OC)C(N)=O)[C@H]1NC(C)=O [Example 2]	0.003 ± 0.001 O.D 415 nm	0.172 ± 0.004 O.D 415 nm	0.420 ± 0.005 O.D 415 nm	0.447 ± 0.029 O.D 415 nm	1.418 ± 0.035 O.D 415 nm	0 O.D 415 nm	0.023 ± 0.000 O.D 415 nm	0.076 ± 0.001 O.D 415 nm	0.975 ± 0.008 O.D 415 nm	0.930 ± 0.004 O.D 415 nm	41.3%
CCCCCCCCCCCCCCC(CCCCCCCCCCCCCC)C(=O)O[C@H]1O[C@H](COC(=O)CCCCCCCCC)[C@@H](O)[C@H](O[C@H](C)C(=O)N[C@@H](C)C(=O)N[C@H](CCC(=O)OC)C(N)=O)[C@H]1NC(C)=O [Example 5]	0 O.D 415 nm	0.091 ± 0.002 O.D 415 nm	0.377 ± 0.001 O.D 415 nm	1.037 ± 0.027 O.D 415 nm	1.068 ± 0.004 O.D 415 nm	0.001 ± 0.001 O.D 415 nm	0.021 ± 0.001 O.D 415 nm	0.048 ± 0.001 O.D 415 nm	0.643 ± 0.013 O.D 415 nm	0.490 ± 0.009 O.D 415 nm	57.8%
CCCCCCCCCCCCCC(=O)OC[C@H]1O[C@H](OC(=O)C[C@@H](CCCCCCCCCCC)OC(=O)CCCCCCCCCCCCC)[C@H](NC(C)=O)[C@@H](O[C@H](C)C(=O)N[C@@H](C)C(=O)N[C@H](CCC(=O)OC)C(N)=O)[C@@H]1O [Example 12, N-[2-0-{2-Acetamido-2,3-dideoxy-6-0-tetradecanoyl-1-0-((3R)-3-tetradecanoyloxytetradecanoyl)-α-D-glucopyranos-3yl}-D-lactoyl]-L-alanyl-D-isoglutamine methylester]	0 O.D 415 nm	0.105 ± 0.004 O.D 415 nm	0.176 ± 0.002 O.D 415 nm	1.039 ± 0.015 O.D 415 nm	1.050 ± 0.008 O.D 415 nm	0.007 ± 0.003 O.D 415 nm	0.109 ± 0.002 O.D 415 nm	0.111 ± 0.001 O.D 415 nm	0.608 ± 0.021 O.D 415 nm	0.695 ± 0.021 O.D 415 nm	79.0%
CCCCCCCCCCCCCCC(CCCCCCCCCCCCCC)C(=O)S[C@@H]1O[C@H](COC(=O)CCCCCCCCCCCCC)[C@@H](O)[C@H](O[C@H](C)C(=O)N[C@@H](C)C(=O)N[C@H](CCC(=O)OC)C(N)=O)[C@H]1NC(C)=O [Example 9, N-[2-0-{2-Acetamido-2,3-dideoxy-6-0-tetradecanoyl-1-S-(2-tetradcylhexadecanoyl)-1-thio-β-D-glucopyranos-3-yl}-D-lactoyl]-L-alanyl-D-isoglutamine methylester]	0.019 ± 0.002 O.D 415 nm	0.168 ± 0.005 O.D 415 nm	0.392 ± 0.006 O.D 415 nm	1.342 ± 0.005 O.D 415 nm	1.329 ± 0.026 O.D 415 nm	0.014 ± 0.002 O.D 415 nm	0.092 ± 0.003 O.D 415 nm	0.149 ± 0.001 O.D 415 nm	0.681 ± 0.012 O.D 415 nm	0.702 ± 0.006 O.D 415 nm	58.5%

From US5075287A, “Muramyl peptide derivatives and immunoregulating compositions containing them” (priority 1989, dated 1991)
